{"source": "paper PMC10045593", "about": "“Ubiquitin-Specific Proteases as Potential Therapeutic Targets in Bladder Cancer—In Vitro Evaluation of Degrasyn and PR-619 Activity Using Human and Canine Models” (Biomedicines, 2023)", "key": {"SV-HUC-1 cell line [1]": {"tested_on": "SV-HUC-1 cell line", "assay": "MTT cell proliferation assay", "type": "cell-based, human", "details": "for cells killed at the highest concentration: SV-HUC-1, MTT, highest concentration used (20 μM)", "method": "(§1) Cell proliferation was determined using the 3-(4,5-dimethylthiazol-2-yl)-2,5-diphenyltetrazolium bromide (MTT) assay (Sigma-Aldrich, Steinheim, Germany). Cells were plated at a density of 1 × 10^5 cells per mL in 96-well plates (Thermo Fisher Scientific, Roskilde, Denmark) and allowed to attach overnight. Subsequently, Degrasyn and PR-619 were added in increasing concentrations (0.6, 1.25, 2.5, 5, 10, and 20 μM). After incubation for 24, 48, and 72 h with either the compounds or in the medium alone, 20 μL of MTT solution (5 mg/mL) was added to each well. After an additional 4 h, 80 μL of the lysis buffer (225 mL DMF, 67.5 g SDS, and 275 mL distilled water) was added to each well. After dissolving the content, the absorbance was measured at a […] of 570 nm using a spectrophotometric microplate reader Spark (Tecan). The values were obtained from 3 independent experiments (different plates, different days). Based on the results, the concentration that inhibited 50% of the cell proliferation (IC50) was calculated for all incubation intervals."}, "T24 cell line [2]": {"tested_on": "T24 cell line", "assay": "MTT cell proliferation assay", "type": "cell-based, human", "details": "for cells killed at the highest concentration: T24, MTT, highest concentration used (20 μM)", "method": "as §1"}, "K9TCC-PU-NK cell line [3]": {"tested_on": "K9TCC-PU-NK cell line", "assay": "Annexin V-FITC/PI apoptosis flow cytometry", "type": "cell-based, canine", "details": "24 h", "method": "(§2) To assess the level of apoptosis induced by Degrasyn and PR-619, cells were seeded at a density of 1 × 10^5/mL in 96-well plates (TPP, Trasadingen, Switzerland) and incubated for 24 h with increasing concentrations of compounds. Cells were then collected, suspended in a binding buffer, and stained with Annexin V-FITC for 10 min at room temperature. Subsequently, PI was added, and flow cytometric analysis was immediately performed using a flow cytometers (FACS Calibur, Becton Dickinson, Biosciences, San Jose, CA, USA; CytoFlex, Beckman Coulter, CA, USA). CellQuest 3.lf. (Becton Dickinson, San Jose, CA, USA) and CytExpert 2.4 (Beckman Coulter, CA, USA) software were used for data analysis."}, "RDSVS-TCC1 cell line [4]": {"tested_on": "RDSVS-TCC1 cell line", "assay": "Annexin V-FITC/PI apoptosis flow cytometry", "type": "cell-based, canine", "details": "RDSVS-TCC1, 24 h; for pro-apoptotic effect (number of apoptotic cells vs control): increasing concentrations up to approximately IC50", "method": "as §2"}, "SV-HUC-1 cell line [5]": {"tested_on": "SV-HUC-1 cell line", "assay": "Caspase 3/7 activation flow cytometry assay", "type": "cell-based, human", "details": "SV-HUC-1, 24 h", "method": "(§3) Subsequently, to assess caspases 3/7 activation, the cells were incubated with medium alone or with increasing concentrations of compounds (Degrasyn, PR-619) in conditions similar to the previous test. Following cell collection, the cells were twice PBS-washed and stained in accordance with the manufacturer’s instructions. For active caspase 3/7 detection, CellEventCaspase-3/7 Green Detection Reagent Solution was added to the samples. The cells were then suspended 1 more time in the wash buffer after being washed twice. For flow cytometric analysis, a flow cytometers (FACS Calibur, Becton Dickinson, Biosciences, San Jose, CA, USA; CytoFlex, Beckman Coulter, CA, USA) were used, and CellQuest 3.lf (Becton Dickinson, San Jose, CA, USA) and CytExpert 2.4 (Beckman Coulter, CA, USA) software were used for data analysis. The presented results were obtained from three independent experiments."}, "T24 cell line [6]": {"tested_on": "T24 cell line", "assay": "Caspase 3/7 activation flow cytometry assay", "type": "cell-based, human", "details": "T24, 24 h", "method": "as §3"}, "K9TCC-PU-NK cell line [7]": {"tested_on": "K9TCC-PU-NK cell line", "assay": "Caspase 3/7 activation flow cytometry assay", "type": "cell-based, canine", "details": "24 h", "method": "as §3"}, "RDSVS-TCC1 cell line [8]": {"tested_on": "RDSVS-TCC1 cell line", "assay": "Caspase 3/7 activation flow cytometry assay", "type": "cell-based, canine", "details": "RDSVS-TCC1, 24 h", "method": "as §3"}, "SV-HUC-1 cell line [9]": {"tested_on": "SV-HUC-1 cell line", "assay": "Ki-67 flow cytometry proliferation assay", "type": "cell-based, human", "details": "SV-HUC-1, 24 h, p < 0.05", "method": "(§4) For the cell proliferation assay, cells were plated in 100 mm cell culture plates. When the cultures reached 60% confluence, the media were discarded from the wells and replaced with culture media only or media with added compounds (Degrasyn, PR-619) with increasing concentrations for 24 h. The growth medium was then removed from the wells, the cells were rinsed twice with PBS, and 0.25% trypsin-EDTA was added to detach the cells. After 5 min of incubation at 37 °C and 5% CO2, the fresh culture medium was added to inactivate the trypsin, and cells were collected in flow cytometry tubes. Cells were then labeled using the Ki-67 Proliferation Kit BD Pharmingen(BD Biosciences) according to the manufacturer’s instructions and analyzed using a flow cytometer (Cytoflex, Beckman Coulter). Unstained control cells were used for gating to determine the percentage of the proliferation of the Ki-67-positive cells in the samples. Percentages of proliferating (Ki-67 positive) cells were used to calculate the means ± SD for each cell line. The presented results were obtained from three independent experiments."}, "T24 cell line [10]": {"tested_on": "T24 cell line", "assay": "Ki-67 flow cytometry proliferation assay", "type": "cell-based, human", "details": "T24, 24 h, p < 0.05", "method": "as §4"}, "[11]": {"details": "2.5 μM (highest concentration of Degrasyn)"}, "[12]": {"details": "5 μM (highest concentration of Degrasyn)"}, "[13]": {"details": "5 μM (highest concentration of PR-619)"}, "[14]": {"details": "10 μM (highest concentration of PR-619)"}}, "note": "Several values for one entry are separate records, joined by “and”; a condition that tells them apart may be missing. Equal entries are not always repeated."}
{"smiles": "CCC[C@H](NC(=O)/C(C#N)=C/c1cccc(Br)n1)c1ccccc1", "note": "[Degrasyn]", "values": [{"measurement": "IC50", "setting": "SV-HUC-1 cell line [1]; SV-HUC-1, 24 h exposure, MTT, read-out: IC50 (concentration that inhibited 50% of the cell proliferation)", "value": 2330, "unit": "nM"}, {"measurement": "cells killed at the highest concentration", "setting": "SV-HUC-1 cell line [1]", "value": "~100", "unit": "%"}, {"measurement": "IC50", "setting": "T24 cell line [2]; T24, 24 h exposure, MTT, read-out: IC50 (concentration that inhibited 50% of the cell proliferation)", "value": 3070, "unit": "nM"}, {"measurement": "cells killed at the highest concentration", "setting": "T24 cell line [2]", "value": "~100", "unit": "%"}, {"measurement": "percentage of early and late apoptotic cells", "setting": "K9TCC-PU-NK cell line [3]; 2.5 μM", "value": "11.8 ± 3.4", "unit": "%"}, {"measurement": "percentage of early and late apoptotic cells", "setting": "RDSVS-TCC1 cell line [4]; 2.5 μM", "value": "42.4 ± 2.3", "unit": "%"}, {"measurement": "pro-apoptotic effect (number of apoptotic cells vs control)", "setting": "RDSVS-TCC1 cell line [4]", "value": "significant increase"}, {"measurement": "percentage of cells with active caspase 3/7", "setting": "SV-HUC-1 cell line [5]; 0.6 μM", "value": 5.8, "unit": "%"}, {"measurement": "percentage of cells with active caspase 3/7", "setting": "SV-HUC-1 cell line [5]; 1.25 μM", "value": 7.6, "unit": "%"}, {"measurement": "percentage of cells with active caspase 3/7", "setting": "SV-HUC-1 cell line [5]; [11]", "value": "22.4 ± 5.4% and 22.4%"}, {"measurement": "percentage of cells with active caspase 3/7", "setting": "T24 cell line [6]; 0.6 μM", "value": 12.5, "unit": "%"}, {"measurement": "percentage of cells with active caspase 3/7", "setting": "T24 cell line [6]; 1.25 μM", "value": 16.1, "unit": "%"}, {"measurement": "percentage of cells with active caspase 3/7", "setting": "T24 cell line [6]; [11]", "value": "36.6 ± 0.7% and 36.6%"}, {"measurement": "percentage of cells with active caspase 3/7", "setting": "K9TCC-PU-NK cell line [7]; 1.25 μM", "value": 5.4, "unit": "%"}, {"measurement": "percentage of cells with active caspase 3/7", "setting": "K9TCC-PU-NK cell line [7]; 2.5 μM", "value": 7.1, "unit": "%"}, {"measurement": "percentage of cells with active caspase 3/7", "setting": "K9TCC-PU-NK cell line [7]; [12]", "value": "11.9 ± 1.8% and 11.9%"}, {"measurement": "percentage of cells with active caspase 3/7", "setting": "RDSVS-TCC1 cell line [8]; 1.25 μM", "value": 5.9, "unit": "%"}, {"measurement": "percentage of cells with active caspase 3/7", "setting": "RDSVS-TCC1 cell line [8]; 2.5 μM", "value": 11.7, "unit": "%"}, {"measurement": "percentage of cells with active caspase 3/7", "setting": "RDSVS-TCC1 cell line [8]; [12]", "value": "22.5 ± 4.3% and 22.5%"}, {"measurement": "percentage of Ki-67 positive cells (as compared to control)", "setting": "SV-HUC-1 cell line [9]; only highest concentration 5 µM", "value": "significantly decreased"}, {"measurement": "percentage of Ki-67 positive cells (as compared to the control)", "setting": "T24 cell line [10]; 2.5–5 µM", "value": "significantly decreased"}]}
{"smiles": "N#CSc1cc(SC#N)c(N)nc1N", "note": "[PR-619]", "values": [{"measurement": "cells killed at the highest concentration", "setting": "SV-HUC-1 cell line [1]", "value": "~100", "unit": "%"}, {"measurement": "cells killed at the highest concentration", "setting": "T24 cell line [2]", "value": "~100", "unit": "%"}, {"measurement": "percentage of early and late apoptotic cells", "setting": "K9TCC-PU-NK cell line [3]; 5 μM", "value": "8.4 ± 0.8", "unit": "%"}, {"measurement": "pro-apoptotic effect (number of apoptotic cells vs control)", "setting": "K9TCC-PU-NK cell line [3]; increasing concentrations up to approximately IC50", "value": "did not show a significant pro-apoptotic effect"}, {"measurement": "percentage of early and late apoptotic cells", "setting": "RDSVS-TCC1 cell line [4]; 5 μM", "value": "17.2 ± 6.5", "unit": "%"}, {"measurement": "pro-apoptotic effect (number of apoptotic cells vs control)", "setting": "RDSVS-TCC1 cell line [4]", "value": "did not show a significant pro-apoptotic effect"}, {"measurement": "percentage of cells with active caspase 3/7", "setting": "SV-HUC-1 cell line [5]; 1.25 μM", "value": 8.9, "unit": "%"}, {"measurement": "percentage of cells with active caspase 3/7", "setting": "SV-HUC-1 cell line [5]; [11]", "value": 10.6, "unit": "%"}, {"measurement": "percentage of cells with active caspase 3/7", "setting": "SV-HUC-1 cell line [5]; [13]", "value": "19.6 ± 1.8% and 19.6%"}, {"measurement": "percentage of cells with active caspase 3/7", "setting": "T24 cell line [6]; 1.25 μM", "value": 10.2, "unit": "%"}, {"measurement": "percentage of cells with active caspase 3/7", "setting": "T24 cell line [6]; [11]", "value": 13.4, "unit": "%"}, {"measurement": "percentage of cells with active caspase 3/7", "setting": "T24 cell line [6]; [13]", "value": "16.1 ± 4.9% and 16.1%"}, {"measurement": "percentage of cells with active caspase 3/7", "setting": "K9TCC-PU-NK cell line [7]; 2.5 μM", "value": 6.4, "unit": "%"}, {"measurement": "percentage of cells with active caspase 3/7", "setting": "K9TCC-PU-NK cell line [7]; [12]", "value": 9.9, "unit": "%"}, {"measurement": "percentage of cells with active caspase 3/7", "setting": "K9TCC-PU-NK cell line [7]; [14]", "value": "13.3 ± 3.3% and 13.2%"}, {"measurement": "percentage of cells with active caspase 3/7", "setting": "RDSVS-TCC1 cell line [8]; 2.5 μM", "value": 6.1, "unit": "%"}, {"measurement": "percentage of cells with active caspase 3/7", "setting": "RDSVS-TCC1 cell line [8]; [12]", "value": 12.9, "unit": "%"}, {"measurement": "percentage of cells with active caspase 3/7", "setting": "RDSVS-TCC1 cell line [8]; [14]", "value": "16.2 ± 7.4% and 16.2%"}, {"measurement": "percentage of Ki-67 positive cells (as compared to control)", "setting": "SV-HUC-1 cell line [9]; only highest concentration 10 µM", "value": "significantly decreased"}, {"measurement": "percentage of Ki-67 positive cells (as compared to the control)", "setting": "T24 cell line [10]; 5–10 µM", "value": "significantly decreased"}]}
